From patent US4020160A, “Cyclodextrin sulfate salts as complement inhibitors” (American Cyanamid Company, priority 1975, dated 1977)
Several values for one entry are separate records, joined by “and”; a condition that tells them apart may be missing. Identical values can stand only once. Counter-ions that a name gives are not always drawn.

What was measured:
[1] = test system: complement system; settings: reported in literature; cited from earlier work
[2] = reported in literature; cited from earlier work
[3] = test system: shunt pathway activated by cobra venom factor; assay type: cell-based, human; settings: higher well number indicates higher activity; serial dilutions two-fold
Text: (§1) This test measures the ability of activated human C1 to destroy fluid phase human C2 in the presence of C4 and appropriate dilutions of the test compound. An active inhibitor protects C2 from C1 and C4; (ii) Test, Code 035 (C3-C9 inhibitor) -- This test determines the ability of the late components of human complement (C3-C9) to lyse EAC 142 in the presence of appropriate dilutions of the test compound. An active inhibitor protects EAC 142 from lysis by human C3-C9; (iii) Test, Code 036 (C-Shunt inhibitor)-In this test human erythrocytes rendered fragile are lysed in autologous serum via the shunt pathway activated by cobra venom factor in the presence of appropriate dilutions of the test compound. Inhibition of the shunt pathway results in failure of lysis; (iv) Forssman Vasculitis Test -- Here, the well known complement dependent lesion, Forssman vasculitis, is produced in guinea pigs by intradermal injection of rabbit anti-Forssman antiserum. The lesion is measured in terms of diameter, edema and hemorrhage and the extent to which a combined index of these is inhibited by prior intraperitoneal injection of the test compound at 200 mg/kg is then reported, unless otherwise stated; (v) Forssman Shock Test -- Lethal shock is produced in guinea pigs by an i.v. injection of anti-Forssman antiserum and the harmonic mean death time of treated guinea pigs is compared with that of simultaneous controls; (vi) Complement Level Reduction Test -- In this test, the above dosed guinea pigs, or others, are bled for serum and the complement level is determined in undiluted serum by the capillary tube method of U.S. Pat. No. 3,876,376 and compared to undosed control guinea pigs; and (vii) Cap 50 Test -- Here, appropriate amounts of the test compound are added to a pool of guinea pig serum in vitro, after which the undiluted serum capillary tube assay referred to above is run. The concentration of compound inhibiting 50% is reported.

[4] = test system: late components of human complement (C3-C9); assay: Test, Code 035 (C3-C9 inhibitor), lysis of EAC 142; assay type: biochemical; settings: higher well number indicates higher activity; serial dilutions two-fold
Text: as §1

[5] = biological target: T1, activated human C1 (Homo sapiens, UniProt P09871); assay: Test, Code 026 (C1 inhibitor); assay type: biochemical; settings: higher well number indicates higher activity, serial dilutions two-fold
T1 sequence (P09871 16-437 limits assumed): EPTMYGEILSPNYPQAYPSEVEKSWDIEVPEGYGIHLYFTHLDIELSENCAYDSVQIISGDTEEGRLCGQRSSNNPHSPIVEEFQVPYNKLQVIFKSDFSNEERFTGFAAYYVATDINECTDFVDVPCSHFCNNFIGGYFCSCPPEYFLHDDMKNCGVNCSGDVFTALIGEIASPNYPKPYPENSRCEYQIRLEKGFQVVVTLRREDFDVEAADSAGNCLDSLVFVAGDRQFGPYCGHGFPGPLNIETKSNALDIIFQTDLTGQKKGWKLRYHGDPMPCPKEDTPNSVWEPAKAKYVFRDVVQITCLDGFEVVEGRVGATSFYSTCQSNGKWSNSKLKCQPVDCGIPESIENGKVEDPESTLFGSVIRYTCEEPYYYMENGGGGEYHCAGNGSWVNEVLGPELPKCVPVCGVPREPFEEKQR
T1 sequence (P09871 438-688 limits assumed): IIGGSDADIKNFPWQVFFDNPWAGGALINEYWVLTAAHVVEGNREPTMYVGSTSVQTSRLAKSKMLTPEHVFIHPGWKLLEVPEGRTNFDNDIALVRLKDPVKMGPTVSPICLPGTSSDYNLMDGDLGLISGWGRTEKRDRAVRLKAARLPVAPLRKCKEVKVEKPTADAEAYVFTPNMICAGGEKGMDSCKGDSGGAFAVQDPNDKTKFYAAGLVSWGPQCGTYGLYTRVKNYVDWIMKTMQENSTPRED
Text: as §1

[6] = test system: lethal shock by i.v. anti-Forssman antiserum; assay: Forssman Shock Test; assay type: in vivo; settings: guinea pig, at 200 mg/kg; Control=3.15 min
Method: as §1, with “An active inhibitor protects EAC 142 from lysis by human C3-C9; (iii) Test, Code 036 (C-Shunt inhibitor)-In this test human erythrocytes rendered fragile are lysed in autologous serum via the shunt pathway activated by cobra venom factor in the presence of appropriate dilutions of the test compound. Inhibition of the shunt pathway results in failure of lysis; (iv) Forssman Vasculitis Test -- Here, the well known complement dependent lesion, Forssman vasculitis, is produced in guinea pigs by intradermal injection of rabbit anti-Forssman antiserum.” left out, “The concentration of compound inhibiting 50% is reported.” left out

[7] = test system: whole complement; assay: Complement Level Reduction Test (serum of dosed guinea pigs, capillary tube assay); assay type: in vivo, guinea pig

## Nc1ccc2cc(S(=O)(=O)O)cc(O)c2c1N=Nc1ccc(NC(=O)Nc2ccc(N=Nc3c(N)ccc4cc(S(=O)(=O)O)cc(O)c34)c(S(=O)(=O)O)c2)cc1S(=O)(=O)O [chlorazol fast pink, 3,3'-ureylenebis-[6-(2-amino-8-hydroxy-6-sulfo-1-naphthylazo)]benzenesulfonic acid tetrasodium salt]
[1]
  anticomplementary effect: anticomplementary effect

## NCCCCCC(=O)O [epsilon-aminocaproic acid]
[2]
  treatment of hereditary angioneurotic edema: used with success

## NC[C@H]1CC[C@H](C(=O)O)CC1 [tranexamic acid]
[2]
  treatment of hereditary angioneurotic edema: used with success

## heparin
[1]
  anticomplementary effect: anticomplementary effect

## α-Cyclodextrin polysulfate triethylammonium salt
[3]
  036 (C-Shunt inhibitor) activity, wells of a two-fold serial dilution assay: 3 wells and 5 wells
[4]
  035 (C3-C9 inhibitor) activity, wells of a two-fold serial dilution assay: Neg
[5]
  026 (C1 inhibitor) activity, wells of a two-fold serial dilution assay: 11 wells

## α-cyclodextrin polysulfate sodium salt
[3]
  036 (C-Shunt inhibitor) activity, wells of a two-fold serial dilution assay: 6 wells
[6]
  Forsmann Shock, harmonic mean death time: 31.1 min
[4]
  035 (C3-C9 inhibitor) activity, wells of a two-fold serial dilution assay: Neg
[7]; 100 mg/kg i.v., time 2'
  In vivo Activity (Guinea Pig) % Inhibition: 75%
[7]; 100 mg/kg i.v., time 30'
  In vivo Activity (Guinea Pig) % Inhibition: 56%
[7]; 100 mg/kg i.v., time 120'
  In vivo Activity (Guinea Pig) % Inhibition: 39%
[7]; 200 mg/kg i.p., time 30'
  In vivo Activity (Guinea Pig) % Inhibition: 71%
[7]; 200 mg/kg i.p., time 60'
  In vivo Activity (Guinea Pig) % Inhibition: 28%
[7]; 200 mg/kg i.p., time 120'
  In vivo Activity (Guinea Pig) % Inhibition: 72%
[5]
  026 (C1 inhibitor) activity, wells of a two-fold serial dilution assay: 14 wells

## β-Cyclodextrin polysulfate potassium salt
[3]
  036 (C-Shunt inhibitor) activity, wells of a two-fold serial dilution assay: 6 wells
[4]
  035 (C3-C9 inhibitor) activity, wells of a two-fold serial dilution assay: Neg
[5]
  026 (C1 inhibitor) activity, wells of a two-fold serial dilution assay: 10 wells

## β-Cyclodextrin polysulfate sodium salt
[6]
  Forsmann Shock, harmonic mean death time: > 90 min
[7]; 100 mg/kg i.v., time 2'
  In vivo Activity (Guinea Pig) % Inhibition: 75%
[7]; 100 mg/kg i.v., time 30'
  In vivo Activity (Guinea Pig) % Inhibition: 45%
[7]; 100 mg/kg i.v., time 120'
  In vivo Activity (Guinea Pig) % Inhibition: 27%
[7]; 200 mg/kg i.p., time 30'
  In vivo Activity (Guinea Pig) % Inhibition: 49%
[7]; 200 mg/kg i.p., time 60'
  In vivo Activity (Guinea Pig) % Inhibition: 29%
[7]; 200 mg/kg i.p., time 120'
  In vivo Activity (Guinea Pig) % Inhibition: 67%
[5]; sodium salt
  026 (C1 inhibitor) activity, wells of a two-fold serial dilution assay: 12 wells and 11 wells and 10 wells

## β-Cyclodextrin polysulfate triethylammonium salt
[3]
  036 (C-Shunt inhibitor) activity, wells of a two-fold serial dilution assay: 4 wells and 6 wells
[4]
  035 (C3-C9 inhibitor) activity, wells of a two-fold serial dilution assay: Neg
[5]
  026 (C1 inhibitor) activity, wells of a two-fold serial dilution assay: 10 wells
